Article PMC9763329, “Targeting the transcription factor HES1 by L-menthol restores protein phosphatase 6 in keratinocytes in models of psoriasis” (Nature Communications, 2022)

How the values were obtained:
[1] = target: T1, Hes1 (Mus musculus, UniProt P35428); assay: DARTS (pronase protection, anti-HES1 immunoblot); assay type: biochemical; conditions: primary mouse keratinocyte lysate; 30 min L-menthol then 20 min pronase, room temperature
T1 construct: endogenous Hes1 in primary mouse keratinocyte lysate, detected by anti-HES1 immunoblot
T1 sequence (P35428 1-282): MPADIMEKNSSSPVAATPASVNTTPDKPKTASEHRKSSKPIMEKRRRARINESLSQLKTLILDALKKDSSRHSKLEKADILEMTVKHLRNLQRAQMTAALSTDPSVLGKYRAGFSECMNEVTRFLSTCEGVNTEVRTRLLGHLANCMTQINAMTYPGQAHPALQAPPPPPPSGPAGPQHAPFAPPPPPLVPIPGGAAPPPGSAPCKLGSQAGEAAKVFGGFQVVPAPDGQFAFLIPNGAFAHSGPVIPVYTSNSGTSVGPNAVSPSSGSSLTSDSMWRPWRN

[2] = target: T2, HES1 (transcription factor hairy and enhancer of split 1) (Homo sapiens, UniProt Q14469); assay: microscale thermophoresis (Monolith NT.[…]); assay type: binding
T2 construct: Human HES1 in pET-28a(+), C-terminal 6xHis tag kept, E. coli BL21(DE3), nickel and size-exclusion purified
T2 sequence (Q14469 1-280): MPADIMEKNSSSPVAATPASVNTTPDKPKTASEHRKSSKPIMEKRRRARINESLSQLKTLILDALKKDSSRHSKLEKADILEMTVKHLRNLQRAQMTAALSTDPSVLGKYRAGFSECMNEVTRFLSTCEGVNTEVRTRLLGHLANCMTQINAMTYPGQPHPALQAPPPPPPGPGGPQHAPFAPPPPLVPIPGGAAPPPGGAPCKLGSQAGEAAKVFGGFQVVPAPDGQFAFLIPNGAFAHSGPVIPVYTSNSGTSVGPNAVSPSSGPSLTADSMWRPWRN

## CC(C)[C@@H]1CC[C@@H](C)C[C@H]1O [L-menthol]
[1]
  DARTS (pronase protection, anti-HES1 immunoblot): interaction between HES1 and L-menthol was verified in HaCaT cells
[2]
  Kd: 16.8 nM
